According to patent US8758816B2, “Compositions comprising azelastine and methods of use thereof” (priority 2004, dated 2014):

Tested on: patients with seasonal allergic rhinitis (SAR)
Assay: MP 428 two-week randomized double-blind study: Total Nasal Symptom Score (TNSS), change from baseline
Format: in vivo, human
Parameters: key to Change from Baseline in AM TNSS, Mean / Change from Baseline in AM TNSS, LS Mean / Change from Baseline in AM TNSS, Median: TNSS sum of 4 symptoms each 0-3 (0=none, 3=severe); change from baseline
Conditions: for AUC of Change from Baseline in TNSS (AM and PM Combined), Mean / AUC of Change from Baseline in TNSS (AM and PM Combined), Median / AUC of Change from Baseline in TNSS (AM and PM Combined), LS Mean: Day 1 to Day 14; for AUC of Change from Baseline in TNSS (AM and PM Combined), LS Mean: ANCOVA
Experimental: A two-week, randomized, double-blind study, which evaluated the effects of the co-administration of ASTELIN® (azelastine hydrochloride (HCl)) and FLONASE® (fluticasone propionate) compared to either product alone in patients with seasonal allergic rhinitis (SAR) was conducted during the 2006 Texas mountain cedar season. After a 5-day placebo lead-in period, 151 patients with moderate-to-severe allergic rhinitis symptoms were randomized to either: (1) (49 total patients) ASTELIN® (azelastine hydrochloride (HCl)) plus placebo saline nasal spray 2 sprays per nostril, 15 minutes apart, twice daily (AM & PM); (2) (50 total patients) FLONASE® (fluticasone propionate) plus placebo saline nasal spray, 2 sprays per nostril, 15 minutes apart, once daily (AM) and two sessions of placebo saline nasal spray, 2 sprays per nostril, 15 minutes apart (PM); or (3) (52 total patients) the co-administration of ASTELIN® (azelastine hydrochloride (HCl)) 2 sprays per nostril plus FLONASE® (fluticasone propionate) 2 sprays per nostril (AM), 15 minutes apart, and ASTELIN® (azelastine hydrochloride (HCl)) 2 sprays per nostril plus placebo saline nasal spray, 15 minutes apart, (PM) for a 2-week double-blind treatment period.
The primary efficacy variable was the change from baseline in the Total Nasal Symptom Score (TNSS), which comprised sneezing, itchy nose, runny nose, and nasal congestion (individual symptoms scores were assigned a value between 0 and 3, where 0=no symptoms and 3=severe symptoms). This study was not statistically designed to assess the differences between ASTELIN® and FLONASE®.

[1] = Day 12, Per-Protocol Population
[2] = Day 13, Intent-to-Treat Population
[3] = Day 13, Per-Protocol Population
[4] = Day 14, Intent-to-Treat Population
[5] = Day 14, Per-Protocol Population
[6] = Overall (Day 2 to Day 14), Intent-to-Treat Population
[7] = Overall (Day 2 to Day 14), Per-Protocol Population

CCC(=O)O[C@]1(C(=O)SCF)[C@H](C)C[C@H]2[C@@H]3C[C@H](F)C4=CC(=O)C=C[C@]4(C)[C@@]3(F)[C@@H](O)C[C@@]21C [Fluticasone, fluticasone propionate]
Percent Change from Baseline in PM TNSS, Median (Day 12, Intent-to-Treat Population): −31.82% | Change from Baseline in AM and PM Combined TNSS, LS Mean (Day 12, Intent-to-Treat Population, ANCOVA model): −6.12 | Change from Baseline in AM and PM Combined TNSS, LS Mean [1]: −6.16 | Change from Baseline in AM and PM Combined TNSS, Mean [1]: −6.20 | Change from Baseline in AM and PM Combined TNSS, Median [1]: −5.17 | Percent Change from Baseline in AM and PM Combined TNSS, LS Mean [1]: −31.45% | Percent Change from Baseline in AM and PM Combined TNSS, Mean [1]: −31.50% | Percent Change from Baseline in AM and PM Combined TNSS, Median [1]: −27.78% | Change from Baseline in AM TNSS, LS Mean [2]: −3.38 | Change from Baseline in AM TNSS, Mean [2]: −3.32 | Change from Baseline in AM TNSS, Median [2]: −3.00 | Change from Baseline in AM and PM Combined TNSS, Mean [2]: −6.83 | Change from Baseline in AM and PM Combined TNSS, Median [2]: −6.20 | Change from Baseline in PM TNSS, LS Mean [2]: −3.57 | Change from Baseline in PM TNSS, Mean [2]: −3.51 | Change from Baseline in PM TNSS, Median [2]: −3.00 | Percent Change from Baseline in AM TNSS, LS Mean [2]: −34.62% | Percent Change from Baseline in AM TNSS, Mean [2]: −34.03% | Percent Change from Baseline in AM TNSS, Median [2]: −28.36% | Percent Change from Baseline in AM and PM Combined TNSS, LS Mean [2]: −35.63% | Percent Change from Baseline in AM and PM Combined TNSS, Mean [2]: −34.97% | Percent Change from Baseline in AM and PM Combined TNSS, Median [2]: −30.43% | Percent Change from Baseline in PM TNSS, LS Mean [2]: −36.56% | Percent Change from Baseline in PM TNSS, Mean [2]: −35.75% | Percent Change from Baseline in PM TNSS, Median [2]: −33.33% | Change from Baseline in AM and PM Combined TNSS, LS Mean (Day 13, Intent-to-Treat Population, ANCOVA model): −6.95 | Change from Baseline in AM and PM Combined TNSS, LS Mean [3]: −7.03 | Change from Baseline in AM and PM Combined TNSS, Mean [3]: −7.01 | Change from Baseline in AM and PM Combined TNSS, Median [3]: −6.50 | Percent Change from Baseline in AM and PM Combined TNSS, LS Mean [3]: −35.99% | Percent Change from Baseline in AM and PM Combined TNSS, Mean [3]: −35.73% | Percent Change from Baseline in AM and PM Combined TNSS, Median [3]: −30.43% | Change from Baseline in AM TNSS, LS Mean [4]: −3.33 | Change from Baseline in AM TNSS, Mean [4]: −3.28 | Change from Baseline in AM TNSS, Median [4]: −3.00 | Change from Baseline in AM and PM Combined TNSS, Mean [4]: −6.91 | Change from Baseline in AM and PM Combined TNSS, Median [4]: −5.85 | Change from Baseline in PM TNSS, LS Mean [4]: −3.70 | Change from Baseline in PM TNSS, Mean [4]: −3.63 | Change from Baseline in PM TNSS, Median [4]: −3.00 | Percent Change from Baseline in AM TNSS, LS Mean [4]: −33.54% | Percent Change from Baseline in AM TNSS, Mean [4]: −33.12% | Percent Change from Baseline in AM TNSS, Median [4]: −31.03% | Percent Change from Baseline in AM and PM Combined TNSS, LS Mean [4]: −35.62% | Percent Change from Baseline in AM and PM Combined TNSS, Mean [4]: −35.00% | Percent Change from Baseline in AM and PM Combined TNSS, Median [4]: −28.71% | Percent Change from Baseline in PM TNSS, LS Mean [4]: −37.70% | Percent Change from Baseline in PM TNSS, Mean [4]: −36.79% | Percent Change from Baseline in PM TNSS, Median [4]: −33.33% | Change from Baseline in AM and PM Combined TNSS, LS Mean (Day 14, Intent-to-Treat Population, ANCOVA model): −7.02 | Change from Baseline in AM and PM Combined TNSS, LS Mean [5]: −7.15 | Change from Baseline in AM and PM Combined TNSS, Mean [5]: −7.14 | Change from Baseline in AM and PM Combined TNSS, Median [5]: −6.00 | Percent Change from Baseline in AM and PM Combined TNSS, LS Mean [5]: −36.26% | Percent Change from Baseline in AM and PM Combined TNSS, Mean [5]: −36.03% | Percent Change from Baseline in AM and PM Combined TNSS, Median [5]: −34.31% | AUC of Change from Baseline in TNSS (AM and PM Combined), Mean (Intent-to-Treat Population): −64.53 | AUC of Change from Baseline in TNSS (AM and PM Combined), Median (Intent-to-Treat Population): −51.13 | AUC of Change from Baseline in TNSS (AM and PM Combined), LS Mean (Intent-to-Treat Population): −65.00 | Change from Baseline in AM TNSS, LS Mean [6]: −2.55 | Change from Baseline in AM TNSS, Mean [6]: −2.57 | Change from Baseline in AM TNSS, Median [6]: −2.14 | Change from Baseline in AM and PM Combined TNSS, Mean [6]: −5.06 | Change from Baseline in AM and PM Combined TNSS, Median [6]: −3.91 | Change from Baseline in PM TNSS, LS Mean [6]: −2.71 | Change from Baseline in PM TNSS, Mean [6]: −2.43 | Change from Baseline in PM TNSS, Median [6]: −1.86 | Percent Change from Baseline in AM TNSS, LS Mean [6]: −26.39% | Percent Change from Baseline in AM TNSS, Mean [6]: −26.49% | Percent Change from Baseline in AM TNSS, Median [6]: −23.89% | Percent Change from Baseline in AM and PM Combined TNSS, LS Mean [6]: −27.13% | Percent Change from Baseline in AM and PM Combined TNSS, Mean [6]: −26.12% | Percent Change from Baseline in AM and PM Combined TNSS, Median [6]: −21.93% | Percent Change from Baseline in PM TNSS, LS Mean [6]: −27.75% | Percent Change from Baseline in PM TNSS, Mean [6]: −24.98% | Percent Change from Baseline in PM TNSS, Median [6]: −20.34% | Change from Baseline in AM and PM Combined TNSS, LS Mean (Overall (Day 2 to Day 14), Intent-to-Treat Population, ANCOVA model): −5.24 | Change from Baseline in AM and PM Combined TNSS, LS Mean [7]: −5.24 | Change from Baseline in AM and PM Combined TNSS, Mean [7]: −5.14 | Change from Baseline in AM and PM Combined TNSS, Median [7]: −3.91 | Percent Change from Baseline in AM and PM Combined TNSS, LS Mean [7]: −27.12% | Percent Change from Baseline in AM and PM Combined TNSS, Mean [7]: −26.46% | Percent Change from Baseline in AM and PM Combined TNSS, Median [7]: −21.93% | AUC of Change from Baseline in TNSS (AM and PM Combined), Mean (Per-Protocol Population): −65.66 | AUC of Change from Baseline in TNSS (AM and PM Combined), Median (Per-Protocol Population): −51.13 | AUC of Change from Baseline in TNSS (AM and PM Combined), LS Mean (Per-Protocol Population): −65.38
